biological target: T1, hP2X7 (Homo sapiens, UniProt Q99572); experiment: P2X7 antagonism: ligand-induced Ca2+ flux in 1321N1 astrocytoma cells overexpressing hP2X7; type: cell-based; conditions: pIC50 = -log(IC50), read-out: hP2RX7pIC50 (mean pIC50 values) (converted)
T1 construct: expressed in transfected cells; host or cells: 1321N1 astrocytoma cells
T1 sequence (Q99572 1-595): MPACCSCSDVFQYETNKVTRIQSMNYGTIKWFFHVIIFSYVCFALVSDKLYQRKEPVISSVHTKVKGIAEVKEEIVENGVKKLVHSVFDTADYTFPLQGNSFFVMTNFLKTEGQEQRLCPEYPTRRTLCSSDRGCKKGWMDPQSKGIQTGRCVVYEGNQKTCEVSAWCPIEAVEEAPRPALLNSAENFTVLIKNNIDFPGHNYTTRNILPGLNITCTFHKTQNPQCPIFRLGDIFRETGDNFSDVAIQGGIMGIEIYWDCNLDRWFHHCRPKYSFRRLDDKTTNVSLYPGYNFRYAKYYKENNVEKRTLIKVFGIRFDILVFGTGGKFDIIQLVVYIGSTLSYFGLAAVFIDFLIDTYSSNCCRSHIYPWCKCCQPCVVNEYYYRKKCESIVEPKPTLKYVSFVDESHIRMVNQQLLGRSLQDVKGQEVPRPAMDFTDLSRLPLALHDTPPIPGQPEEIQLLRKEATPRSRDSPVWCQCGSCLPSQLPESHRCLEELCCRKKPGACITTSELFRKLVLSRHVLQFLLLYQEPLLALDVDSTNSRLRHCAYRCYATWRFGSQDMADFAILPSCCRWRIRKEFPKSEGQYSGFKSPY
In short: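 Intracellular Ca2+ tracked with a quenched Ca2+-sensitive fluorescent dye kit (excitation 488 nm, emission 510-560 nm) in 1321N1 cells, before and after agonist addition in presence of antagonist. Effects expressed as % control and IC50.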

SMILES | IC50 [µM]
CC(C)Oc1ncc(C(CNC(=O)c2cccc3nc(N4CCN(C(C)C)CC4)ccc23)N2CCC(F)(F)CC2)cn1 (stereo not drawn) [Compound 306] | 0.0468
O=C(NCC(c1cnc(C2CCCC2)nc1)N1CCC(F)(F)CC1)c1cccc2nc(N3CCCC3)ccc12 (stereo not drawn) [Compound 307] | 0.0457
CC(C)c1ncc(C(CNC(=O)c2cccc3nc(N4CCCC4)ccc23)N2CCC(F)(F)CC2)cn1 (stereo not drawn) [Compound 308] | 0.049
CC(=O)N1CCN(c2ncc(C(CNC(=O)c3cccc4nc(N5CCN(C(C)C)CC5)ccc34)N3CCC(F)(F)CC3)cn2)CC1 (stereo not drawn) [Compound 309] | 0.0741
CCOc1ncc(C(CNC(=O)c2cccc3nc(N4CCN(C(C)C)CC4)ccc23)N2CCOCC2)cn1 (stereo not drawn) [Compound 310] | 0.0562
CCc1ncc(C(CNC(=O)c2cccc3nc(N4CCOCC4)ccc23)N2CCOCC2)cn1 (stereo not drawn) [Compound 311] | 0.112
CC(C)N1CCN(c2ccc3c(C(=O)NCC(c4cnc(N5CCNCC5)nc4)N4CCC(F)(F)CC4)cccc3n2)CC1 (stereo not drawn) [Compound 312] | 0.105
O=C(NCC(c1cnc(OC2CCC2)nc1)N1CCOCC1)c1cccc2nc(N3CCOCC3)ccc12 (stereo not drawn) [Compound 313] | 0.117
O=C(NCC(c1cnc(C2CCCC2)nc1)N1CCOCC1)c1cccc2nc(N3CCOCC3)ccc12 (stereo not drawn) [Compound 314] | 0.151
O=C(NCC(c1cnc(-c2ccccc2)nc1)N1CCOCC1)c1cccc2nc(N3CCOCC3)ccc12 (stereo not drawn) [Compound 315] | 0.0427

biological target: T2, P2X7 (Homo sapiens, UniProt Q99572); experiment: THP-1 YoPro uptake assay (BzATP-stimulated Yo-Pro-1 uptake); type: cell-based; conditions: Table F-10, THP-1 cells, read-out: mean pIC50 values for P2X7 antagonism (converted)
T2 construct: endogenous in cells; host or cells: THP-1 human monocytic cell line
T2 sequence (Q99572 1-595): T1 sequence (Q99572 1-595)
Protocol: The human monocytic cell line THP-1 was grown as a suspension culture in RPMI medium supplemented with 10% fetal bovine serum, penicillin/streptomycin (50 units/mL), 2 mM L-glutamine, and 20 μM 2-mercaptoethanol. Cells were maintained at a density below 0.5 million per mL. On the day of the assay, cells were washed twice with assay buffer, and then resuspended at 2 million per mL in assay buffer containing 2 μM Yo-Pro-1 (Invitrogen). The assay buffer contained (in mM): 280 sucrose, 5 KCl, 10 glucose, 10 HEPES, 5 N-methyl-D-glucamine. The cells were added at 200 k/well into poly-D-lysine-coated black-walled 96-well plates (Biocoat, Becton-Dickinson). Test compounds were dissolved in DMSO, and then added at the test concentration to each well of the 96-well plate. Concentration dependence of block was determined by exposing each well of cells in duplicate rows of a 96-well plate to a serial dilution of test compound. The concentration series usually started at 10 μM with a three-fold decrement in concentration. The final DMSO concentration seen by the cells was less than 0.5%. Cells were incubated with test compounds for 30 minutes at 37° C. A background reading was taken using a Gemini SpectraMax with 490 nm excitation and 530 nm emission. […] After incubation for 60 minutes at 37° C., an endpoint read was taken in the SpectraMax plate reader. The amount of block of the response was determined by comparing the fluorescence intensity in each well to the average of control wells on each plate. The control wells contained either a known antagonist of P2X7 (positive controls) or a concentration of DMSO equal to that in the test wells. Data were analyzed using a nonlinear regression program (Origin, OriginLab, MA). Results are reported as the −log of the IC50 (pIC50).

SMILES | IC50 [µM]
O=C(NCC(c1cnc(C(F)(F)F)nc1)N1CCC(F)(F)CC1)c1c(Cl)ccc2nc(N3CCOCC3)ccc12 (stereo not drawn) [Compound 403] | 0.0148
CN(C)[C@@H]1CCN(c2ccc3c(C(=O)NCC(c4cnc(C(F)(F)F)nc4)N4CCOCC4)c(Cl)ccc3n2)C1 (stereo partly drawn) [Compound 406] | 0.00871
CN(C)[C@H]1CCN(c2ccc3c(C(=O)NCC(c4cnc(C(F)(F)F)nc4)N4CCOCC4)c(Cl)ccc3n2)C1 (stereo partly drawn) [Compound 407] | 0.00741
CC(C)CN1CCN(c2ccc3c(C(=O)NCC(c4cnc(C(F)(F)F)nc4)N4CCOCC4)c(Cl)ccc3n2)CC1 (stereo not drawn) [Compound 408] | 0.00676
O=C(NCC(c1cnc(C(F)(F)F)nc1)N1CCOCC1)c1c(Cl)ccc2nc(N3CCN(C4CC4)CC3)ccc12 (stereo not drawn) [Compound 409] | 0.00339
CC(C)N1CCN(c2ccc3c(C(=O)NCC(c4cnc(C(F)(F)F)nc4)N4CCOCC4)c(Cl)ccc3n2)CC1 (stereo not drawn) [Compound 410] | 0.00501
CCN1CCN(c2ccc3c(C(=O)NCC(c4cnc(C(F)(F)F)nc4)N4CCOCC4)c(Cl)ccc3n2)CC1 (stereo not drawn) [Compound 411] | 0.00562
CN(C)CCNc1ccc2c(C(=O)NCC(c3cnc(C(F)(F)F)nc3)N3CCOCC3)c(Cl)ccc2n1 (stereo not drawn) [Compound 412] | 0.00513
N[C@@H]1CCCN(c2ccc3c(C(=O)NCC(c4cnc(C(F)(F)F)nc4)N4CCOCC4)c(Cl)ccc3n2)C1 (stereo partly drawn) [Compound 413] | 0.00513
O=C(NCC(c1cnc(C(F)(F)F)nc1)N1CCOCC1)c1c(Cl)ccc2nc(N3CCCCC3)ccc12 (stereo not drawn) [Compound 414] | 0.00417
O=C(NCC(c1cnc(C(F)(F)F)nc1)N1CCOCC1)c1c(Cl)ccc2nc(N3CCCC3)ccc12 (stereo not drawn) [Compound 415] | 0.0024
O=C(NCC(c1cnc(C(F)(F)F)nc1)N1CCOCC1)c1c(Cl)ccc2nc(N3CCC3)ccc12 (stereo not drawn) [Compound 416] | 0.00174
N[C@@H]1CCCN(c2ccc3c(C(=O)NCC(c4cnc(C(F)(F)F)nc4)N4CCC(F)(F)CC4)c(Cl)ccc3n2)C1 (stereo partly drawn) [Compound 423] | 0.00112
N[C@H]1CCCN(c2ccc3c(C(=O)NCC(c4cnc(C(F)(F)F)nc4)N4CCC(F)(F)CC4)c(Cl)ccc3n2)C1 (stereo partly drawn) [Compound 424] | 0.00224
O=C(NCC(c1cnc(C(F)(F)F)nc1)N1CCC(F)(F)CC1)c1c(Cl)ccc2nc(N3CCN(C4CC4)CC3)ccc12 (stereo not drawn) [Compound 425] | 0.00631
CC(C)CN1CCN(c2ccc3c(C(=O)NCC(c4cnc(C(F)(F)F)nc4)N4CCC(F)(F)CC4)c(Cl)ccc3n2)CC1 (stereo not drawn) [Compound 426] | 0.00575
CC(C)N1CCN(c2ccc3c(C(=O)NCC(c4cnc(C(F)(F)F)nc4)N4CCC(F)(F)CC4)c(Cl)ccc3n2)CC1 (stereo not drawn) [Compound 427] | 0.00339
CCN1CCN(c2ccc3c(C(=O)NCC(c4cnc(C(F)(F)F)nc4)N4CCC(F)(F)CC4)c(Cl)ccc3n2)CC1 (stereo not drawn) [Compound 428] | 0.00324
O=C(NCC(c1cnc(C(F)(F)F)nc1)N1CCOCC1)c1c(Cl)ccc2nc(NCCCO)ccc12 (stereo not drawn) [Compound 430] | 0.0224
O=C(NCC(c1cnc(C(F)(F)F)nc1)N1CCOCC1)c1c(Cl)ccc2nc(NCC3CCCO3)ccc12 (stereo not drawn) [Compound 432] | 100
CNCCCN(C)c1ccc2c(C(=O)NCC(c3cnc(C(F)(F)F)nc3)N3CCOCC3)c(Cl)ccc2n1 (stereo not drawn) [Compound 433] | 0.0115

SMILES | IC50 [µM]
O=C(NCC(c1cnc(C(F)(F)F)nc1)N1CCOCC1)c1c(Cl)ccc2nc(NCc3ccccc3)ccc12 (stereo not drawn) [Compound 434] | 0.0145
O=C(NCC(c1cnc(C(F)(F)F)nc1)N1CCOCC1)c1c(Cl)ccc2nc(NCc3cccnc3)ccc12 (stereo not drawn) [Compound 435] | 0.0776
CC1CN(c2ccc3c(C(=O)NCC(c4cnc(C(F)(F)F)nc4)N4CCOCC4)c(Cl)ccc3n2)CC(C)N1 (stereo not drawn) [Compound 436] | 0.0316
Cc1ccccc1CNc1ccc2c(C(=O)NCC(c3cnc(C(F)(F)F)nc3)N3CCOCC3)c(Cl)ccc2n1 (stereo not drawn) [Compound 437] | 0.155
O=C(NCC(c1cnc(C(F)(F)F)nc1)N1CCOCC1)c1c(Cl)ccc2nc(NCc3ccc(F)cc3)ccc12 (stereo not drawn) [Compound 438] | 0.0229
O=C(NCC(c1cnc(C(F)(F)F)nc1)N1CCOCC1)c1c(Cl)ccc2nc(NCCN3CCOCC3)ccc12 (stereo not drawn) [Compound 439] | 0.0407
O=C(NCC(c1cnc(C(F)(F)F)nc1)N1CCOCC1)c1c(Cl)ccc2nc(NCc3ccc4c(c3)OCO4)ccc12 (stereo not drawn) [Compound 440] | 0.0372
O=C(NCC(c1cnc(C(F)(F)F)nc1)N1CCOCC1)c1c(Cl)ccc2nc(N3CCC4(CC3)OCCCO4)ccc12 (stereo not drawn) [Compound 441] | 0.0245
O=C(NCC(c1cnc(C(F)(F)F)nc1)N1CCOCC1)c1c(Cl)ccc2nc(N3CCC(N4CCCC4=O)CC3)ccc12 (stereo not drawn) [Compound 442] | 0.224
CC(=O)N1C[C@H]2CC[C@@H]1N(c1ccc3c(C(=O)NCC(c4cnc(C(F)(F)F)nc4)N4CCOCC4)c(Cl)ccc3n1)C2 (stereo partly drawn) [Compound 443] | 0.282
O=C(NCC(c1cnc(C(F)(F)F)nc1)N1CCOCC1)c1c(Cl)ccc2nc(N3CCCNCC3)ccc12 (stereo not drawn) [Compound 444] | 0.0257
O=C(NCC(c1cnc(C(F)(F)F)nc1)N1CCOCC1)c1c(Cl)ccc2nc(N3CCC(c4n[nH]c(=O)[nH]4)CC3)ccc12 (stereo not drawn) [Compound 445] | 0.0234
O=C(NCC(c1cnc(C(F)(F)F)nc1)N1CCOCC1)c1c(Cl)ccc2nc(N3CCC(n4cn[nH]c4=O)CC3)ccc12 (stereo not drawn) [Compound 446] | 0.0347
O=C(NCC(c1cnc(C(F)(F)F)nc1)N1CCOCC1)c1c(Cl)ccc2nc(NCc3cc(F)cc(F)c3)ccc12 (stereo not drawn) [Compound 447] | 0.309
O=C(NCC(c1cnc(C(F)(F)F)nc1)N1CCOCC1)c1c(Cl)ccc2nc(N3CCC(O)CC3)ccc12 (stereo not drawn) [Compound 452] | 0.0195
CC1CN(c2ccc3c(C(=O)NCC(c4cnc(C(F)(F)F)nc4)N4CCOCC4)c(Cl)ccc3n2)CCO1 (stereo not drawn) [Compound 453] | 0.0209
C[C@H]1CCCN(c2ccc3c(C(=O)NCC(c4cnc(C(F)(F)F)nc4)N4CCOCC4)c(Cl)ccc3n2)C1 (stereo partly drawn) [Compound 454] | 0.0191
O=C(NCC(c1cnc(C(F)(F)F)nc1)N1CCOCC1)c1c(Cl)ccc2nc(N3CCN(CCO)CC3)ccc12 (stereo not drawn) [Compound 455] | 0.0257
CC(CO)Nc1ccc2c(C(=O)NCC(c3cnc(C(F)(F)F)nc3)N3CCOCC3)c(Cl)ccc2n1 (stereo not drawn) [Compound 456] | 0.00724
CCC(C)Nc1ccc2c(C(=O)NCC(c3cnc(C(F)(F)F)nc3)N3CCOCC3)c(Cl)ccc2n1 (stereo not drawn) [Compound 457] | 0.000955
